Results published in US20260070903A1, “NOVEL PYRIDO[3,4-D]PYRIMIDIN-8-ONE DERIVATIVE HAVING PROTEIN KINASE INHIBITORY ACTIVITY, AND PHARMACEUTICAL COMPOSITION FOR PREVENTING, ALLEVIATING, OR TREATING CANCER, COMPRISING SAME” (KOREA INSTITUTE OF SCIENCE AND TECHNOLOGY, priority 2019, published 2026).

Columns and labels:
Ba/F3 (N-Ras G12D) = test: Proliferation inhibitory activity, Ba/F3 N-Ras G12D; format: cell-based
Method: (§1) The inhibitory activities of the compounds of the present disclosure against the proliferation of the mt-NRAS (G12D) Ba/F3 and OCI-AML3 (mt-NRAS) cell lines were measured and the GI50 values thereof were calculated.

OCI-AML3 (N-Ras Q61L) = test: Proliferation inhibitory activity, OCI-AML3; format: cell-based, human
Method: as §1

GCK = molecular target: T1, GCK (Homo sapiens, UniProt Q12851); test: Inhibitory activity against GCK kinase (IC50); format: biochemical
T1 sequence (Q12851 1-820): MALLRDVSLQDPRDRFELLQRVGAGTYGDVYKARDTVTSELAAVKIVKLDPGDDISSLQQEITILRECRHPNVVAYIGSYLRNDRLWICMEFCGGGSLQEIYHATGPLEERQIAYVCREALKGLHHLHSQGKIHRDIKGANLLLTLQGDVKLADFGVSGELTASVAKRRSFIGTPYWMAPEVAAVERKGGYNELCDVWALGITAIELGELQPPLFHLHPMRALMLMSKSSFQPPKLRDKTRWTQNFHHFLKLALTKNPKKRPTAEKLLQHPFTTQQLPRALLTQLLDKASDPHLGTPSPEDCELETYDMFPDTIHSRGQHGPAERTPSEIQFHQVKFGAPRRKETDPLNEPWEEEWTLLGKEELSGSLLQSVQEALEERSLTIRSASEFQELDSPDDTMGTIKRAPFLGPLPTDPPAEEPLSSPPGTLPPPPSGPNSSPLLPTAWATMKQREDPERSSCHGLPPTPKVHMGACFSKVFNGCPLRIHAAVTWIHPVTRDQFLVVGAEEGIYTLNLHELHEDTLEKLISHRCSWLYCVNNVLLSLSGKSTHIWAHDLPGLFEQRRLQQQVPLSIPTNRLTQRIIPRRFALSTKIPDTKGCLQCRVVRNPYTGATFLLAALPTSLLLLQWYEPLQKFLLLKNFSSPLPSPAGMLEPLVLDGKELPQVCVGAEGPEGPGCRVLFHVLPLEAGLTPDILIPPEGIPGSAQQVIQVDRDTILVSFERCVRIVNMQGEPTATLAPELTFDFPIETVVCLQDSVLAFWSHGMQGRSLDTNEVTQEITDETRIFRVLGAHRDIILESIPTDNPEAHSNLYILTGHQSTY
Method: (§2) The inhibitory activities of the compounds of the present disclosure against two kinases, GCK and ACK1, were measured, and the IC50 values thereof were calculated.

ACK1 = ACK1 (Homo sapiens, UniProt Q07912); test: Inhibitory activity against ACK1 kinase (IC50); format: biochemical
Sequence of ACK1 (Q07912 whole entry): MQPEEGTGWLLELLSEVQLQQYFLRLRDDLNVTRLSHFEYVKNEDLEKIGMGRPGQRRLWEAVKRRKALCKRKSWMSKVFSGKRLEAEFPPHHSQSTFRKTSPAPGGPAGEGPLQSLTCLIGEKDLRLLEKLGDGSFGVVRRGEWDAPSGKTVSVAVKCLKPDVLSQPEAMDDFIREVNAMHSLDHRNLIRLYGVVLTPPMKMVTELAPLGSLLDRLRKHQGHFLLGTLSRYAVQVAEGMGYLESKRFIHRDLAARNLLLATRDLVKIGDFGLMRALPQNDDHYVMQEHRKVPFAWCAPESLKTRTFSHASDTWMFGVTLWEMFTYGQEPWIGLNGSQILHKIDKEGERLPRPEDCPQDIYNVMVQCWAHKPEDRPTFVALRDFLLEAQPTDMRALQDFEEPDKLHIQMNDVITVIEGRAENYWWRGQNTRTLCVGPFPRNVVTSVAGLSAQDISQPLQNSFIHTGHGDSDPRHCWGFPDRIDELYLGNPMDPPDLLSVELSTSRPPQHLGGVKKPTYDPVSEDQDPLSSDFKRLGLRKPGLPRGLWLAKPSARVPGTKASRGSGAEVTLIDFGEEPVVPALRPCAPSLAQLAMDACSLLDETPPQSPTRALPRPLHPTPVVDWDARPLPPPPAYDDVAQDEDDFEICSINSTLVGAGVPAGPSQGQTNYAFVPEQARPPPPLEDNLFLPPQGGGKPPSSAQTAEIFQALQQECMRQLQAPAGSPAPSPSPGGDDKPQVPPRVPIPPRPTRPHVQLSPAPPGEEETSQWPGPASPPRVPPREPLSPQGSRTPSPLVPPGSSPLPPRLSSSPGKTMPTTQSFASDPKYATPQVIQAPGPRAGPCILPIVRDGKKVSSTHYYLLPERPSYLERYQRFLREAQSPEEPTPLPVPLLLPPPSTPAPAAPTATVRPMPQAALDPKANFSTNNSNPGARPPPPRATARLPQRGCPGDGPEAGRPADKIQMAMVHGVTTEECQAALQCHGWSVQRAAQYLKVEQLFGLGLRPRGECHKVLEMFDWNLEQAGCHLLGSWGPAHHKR
Method: as §2

Structure (SMILES)	GI50 (Ba/F3 (N-Ras G12D); Mus musculus, BaF3) [µM]	GI50 (OCI-AML3 (N-Ras Q61L); Homo sapiens, OCI-AML-3) [µM]	GI50 (Ba/F3 (N-Ras G12D); Ba/F3 (N-Ras G12D)) [µM]	GI50 (OCI-AML3 (N-Ras Q61L); OCI-AML3 (N-Ras Q61L)) [µM]	IC50 (GCK) [µM]	IC50 (ACK1) [µM]
Cc1ccc(NC(=O)c2cccc(C(F)(F)F)c2)cc1-c1cc2cnc(NC3CC3)nc2c(=O)n1C [Compound No. 1, N-(3-(2-(cyclopropylamino)-7-methyl-8-oxo-7,8-dihydropyrido[3,4-d]pyrimidin-6-yl)-4-methylphenyl)-3-(trifluoromethyl)benzamide]	0.5 to 3	0.5 to 3	–	–	–	–
Cc1ccc(NC(=O)c2cccc(C(F)(F)F)c2)cc1-c1cc2cnc(NCCO)nc2c(=O)n1C [Compound No. 2, N-(3-(2-((2-hydroxyethyl)amino)-7-methyl-8-oxo-7,8-dihydropyrido[3,4-d]pyrimidin-6-yl)-4-methylphenyl)-3-(trifluoromethyl)benzamide]	0.5 to 3	0.5 to 3	–	–	–	–
Cc1ccc(NC(=O)c2cccc(C(F)(F)F)c2)cc1-c1cc2cnc(NCCN3CCOCC3)nc2c(=O)n1C [Compound No. 6, N-(4-methyl-3-(7-methyl-2-((2-morpholinoethyl)amino)-8-oxo-7,8-dihydropyrido[3,4-d]pyrimidin-6-yl)phenyl)-3-(trifluoromethyl)benzamide]	0.5 to 3	0.5 to 3	–	–	–	–
COc1ccc(CNc2ncc3cc(-c4cc(NC(=O)c5cccc(C(F)(F)F)c5)ccc4C)n(C)c(=O)c3n2)cc1 [Compound No. 10, N-(3-(2-((4-methoxybenzyl)amino)-7-methyl-8-oxo-7,8-dihydropyrido[3,4-d]pyrimidin-6-yl)-4-methylphenyl)-3-(trifluoromethyl)benzamide]	> 5	> 5	–	–	–	–
Cc1ccc(NC(=O)c2cccc(C(F)(F)F)c2)cc1-c1cc2cnc(NCCSCc3ccco3)nc2c(=O)n1C [Compound No. 11, N-(3-(2-((2-((furan-2-ylmethyl)thio)ethyl)amino)-7-methyl-8-oxo-7,8-dihydiropyrido[3,4-d]pyrimidin-6-yl)-4-methylphenyl)-3-(trifluoromethyl)benzamide]	–	–	> 5	3 to 5	–	–
Cc1ccc(NC(=O)c2cccc(C(F)(F)F)c2)cc1-c1cc2cnc(N3CCOCC3)nc2c(=O)n1C [Compound No. 12, N-(4-methyl-3-(7-methyl-2-morpholino-8-oxo-7,8-dihydropyrido[3,4-d]pyrimidin-6-yl)phenyl)-3-(trifluoromethyl)benzamide]	> 5	0.5 to 3	–	–	–	–
Cc1ccc(Nc2ncc3cc(-c4cc(NC(=O)c5cccc(C(F)(F)F)c5)ccc4C)n(C)c(=O)c3n2)cn1 [Compound No. 13, N-(4-methyl-3-(7-methyl-2-((6-methylpyridin-3-yl)amino)-8-oxo-7,8-dihydropyrido[3,4-d]pyrimidin-6-yl)phenyl)-3-(trifluoromethyl)benzamide]	< 0.5	< 0.5	–	–	0.1 to 1	< 0.1
Cc1ccc(NC(=O)c2cccc(C(F)(F)F)c2)cc1-c1cc2cnc(Nc3ccc(C(=O)N(C)C)cc3)nc2c(=O)n1C [Compound No. 15]	0.5 to 3	0.5 to 3	–	–	–	–
CCN1CCN(c2ccc(Nc3ncc4cc(-c5cc(NC(=O)c6cccc(C(F)(F)F)c6)ccc5C)n(C)c(=O)c4n3)cc2)CC1 [Compound No. 17, N-(3-(2-((4-(4-ethylpiperazin-1-yl)phenyl)amino)-7-methyl-8-oxo-7,8-dihydropyrido[3,4-d]pyrimidin-6-yl)-4-methylphenyl)-3-(trifluoromethyl)benzamide]	0.5 to 3	< 0.5	–	–	–	–
Cc1ccc(NC(=O)c2cccc(C(F)(F)F)c2)cc1-c1cc2cnc(Nc3ccc(N4CCC(O)CC4)cc3)nc2c(=O)n1C [Compound No. 19, N-(3-(2-((4-(4-hydroxypiperidin-1-yl)phenyl)amino)-7-methyl-8-oxo-7,8-dihydropyrido[3,4-d]pyrimidin-6-yl)-4-methylphenyl)-3-(trifluoromethyl)benzamide]	0.5 to 3	0.5 to 3	–	–	–	–
COc1cc(N2CCOCC2)ccc1Nc1ncc2cc(-c3cc(NC(=O)c4cccc(C(F)(F)F)c4)ccc3C)n(C)c(=O)c2n1 [Compound No. 22, N-(3-(2-((2-methoxy-4-morpholinophenyl)amino)-7-methyl-8-oxo-7,8-dihydropyrido[3,4-d]pyrimidin-6-yl)-4-methylphenyl)-3-(trifluoromethyl)benzamide]	> 5	> 5	–	–	–	–
Cc1ccc(NC(=O)c2cccc(C(F)(F)F)c2)cc1-c1cc2cnc(NC3CC3)nc2c(=O)[nH]1 [Compound No. 53, N-(3-(2-(cyclopropylamino)-8-oxo-7,8-dihydropyrido[3,4-d]pyrimidin-6-yl)-4-methylphenyl)-3-(trifluoromethyl)benzamide]	< 0.5	< 0.5	–	–	0.1 to 1	< 0.1
Cc1ccc(Nc2ncc3cc(-c4cc(NC(=O)c5cccc(C(F)(F)F)c5)ccc4C)[nH]c(=O)c3n2)cn1 [Compound No. 54, N-(4-methyl-3-(2-((6-methylpyridin-3-yl)amino)-8-oxo-7,8-dihydropyrido[3,4-d]pyrimidin-6-yl)phenyl)-3-(trifluoromethyl)benzamide]	0.5 to 3	< 0.5	–	–	–	–
